Measured values taken from patent publication US6143780A, “N-arylmethylthioanilide compounds useful for the inhibition of the replication of HIV” (Uniroyal Chemical Company, Inc., priority 1999, dated 2000).
“And” between values parts separate entries of the source, which are not always exact repeats. Equal values may be shown once. Read-outs that look alike come from different tables or passages of the source.

System: HIV-1 (IIIB)
Assay: inhibition of HIV-1(IIIB) (WT) induced syncytium formation in CEM cells
Format: cell-based
Conditions: Table 2, day 4 post infection, replicate values, read-out: EC50, Activity Against HIV-1 (IIIB)
Source text: CEM cells were obtained from the American Tissue Cell Culture Collection (Rockville, Md.) . HIV-1 (IIIB) was originally obtained from the culture supernatant of persistently HIV-1-infected H9 cells and was provided by R. C. Gallo and M. Popovic (National Cancer Institute, National Institutes of Health, Bethesda, Md.).
CEM cells were suspended at ≈300,000 cells per ml of culture medium and infected with approximately 100 CCID50 (CCID50 being the 50% cell culture infective dose) of HIV-1(IIIB) (designated as "WT" in Table 3) or one of the HIV-1 RT mutant strains described above. Then 100 μl of the infected cell suspensions was added to 200 μl microtiter plate wells containing 100 μl of appropriate serial (5-fold) dilutions of the test compounds. The inhibitiory effect of the test compounds on HIV-1 induced syncytium formation in CEM cells was examined microscopically on day 4 post infection. The 50% effective concentration (EC50) was defined as the test compound concentration that inhibits syncytium formation in the HIV-1-infected cell cultures by 50%.

[1] = Human immunodeficiency virus 1, IIIB, CCRF-CEM, 96 h

SMILES | EC50 | EC50 [1]
Cc1occc1C(=O)Nc1ccc(Cl)c(OCc2ccccc2F)c1 [Compound 69] | 359 nM and 317 nM and 244 nM | 
Cc1occc1C(=O)Nc1ccc(Cl)c(OCc2sccc2Br)c1 [Compound 75] | 588 nM and 1500 nM and 2600 nM | 
Cc1occc1C(=S)Nc1ccc(Cl)c(OCc2sccc2Br)c1 [Compound 76] | 95.2 nM | 86.1 nM
Cc1occc1C(=O)Nc1ccc(Cl)c(COc2cccc([N+](=O)[O-])c2)c1 [Compound 26] | 4140 nM and 3660 nM | 4610 nM
Cc1occc1C(=O)Nc1ccc(Cl)c(CSc2ccccn2)c1 [Compound 79] | 2830 nM and 2990 nM and 3300 nM and 1650 nM and 614 nM | 
COc1cccc(F)c1OCc1cc(NC(=O)c2ccoc2C)ccc1Br [Compound 63] | 7.55 nM | 7.45 nM
CCc1ccccc1OCc1cc(NC(=O)c2ccoc2C)ccc1Cl [Compound 38] | 2880 nM and 1450 nM | 
Cc1occc1C(=S)Nc1ccc(Cl)c(COc2ccccc2C=NN(C)C)c1 [Compound 57] | 214 nM and 76.6 nM and 79.2 nM | 
Cc1occc1C(=S)Nc1ccc(Cl)c(CSc2ccccn2)c1 [Compound 80] | 150 nM | 218 nM
Cc1occc1COc1cc(NC(=O)c2ccoc2C)ccc1Cl [Compound 82] | 1460 nM and 3150 nM and 2430 nM | 
Cc1occc1C(=O)Nc1ccc(Cl)c(COc2ccc(F)cc2Cl)c1 [Compound 42] | 4660 nM and 18200 nM | 
CC(=O)c1ccccc1OCc1cc(NC(=S)c2ccoc2C)ccc1Cl [Compound 54] | 6670 nM and 15300 nM | 
Cc1occc1C(=O)Nc1ccc(Br)c(COc2c(F)ccc(F)c2F)c1 [Compound 61] |  | 2.05 nM
Cc1occc1C(=S)Nc1ccc(Cl)c(COc2ccccc2C(C)(C)C)c1 [Compound 49] | 384 nM and 599 nM and 1130 nM | 
COc1cccc(OC)c1OCc1cc(NC(=S)c2ccoc2C)ccc1Cl [Compound 28] | 6710 nM and 7560 nM and 19600 nM and 10100 nM and 11000 nM | 
Cc1occc1C(=S)Nc1ccc(Cl)c(COc2cccnc2)c1 [Compound 85] | 211 nM | 151 nM
Cc1occc1COc1cc(NC(=S)c2ccoc2C)ccc1Cl [Compound 84] | 66.1 nM and 255 nM | 
CCON=Cc1ccccc1OCc1cc(NC(=S)c2ccoc2C)ccc1Cl [Compound 50] | 1070 nM | 
COC(=O)c1ccccc1OCc1cc(NC(=S)c2ccoc2C)ccc1Cl [Compound 51] | 1000 nM and 226 nM and 915 nM and 568 nM | 
COc1cccc(F)c1OCc1cc(NC(=O)c2ccoc2C)ccc1Cl [Compound 31] | 77.8 nM and 124 nM and 213 nM | 
Cc1occc1C(=O)Nc1ccc(Cl)c(COc2ccccc2[N+](=O)[O-])c1 [Compound 13] | 301 nM and 208 nM and 358 nM | 
Cc1occc1C(=O)Nc1ccc(Cl)c(COc2cccnc2)c1 [Compound 81] | 5500 nM and 3690 nM | 
CC(=O)Oc1ccccc1OCc1cc(NC(=S)c2ccoc2C)ccc1Cl [Compound 33] | 1390 nM and 2830 nM and 2670 nM | 
Cc1occc1C(=S)Nc1ccc(Cl)c(CSc2ccncc2)c1 [Compound 83] | 13300 nM and 12100 nM | 16500 nM
CC(=NN(C)C)c1ccccc1OCc1cc(NC(=O)c2ccoc2C)ccc1Cl [Compound 56] | 2910 nM and 3580 nM | 2230 nM
Cc1occc1C(=S)Nc1ccc(Cl)c(COc2ccccc2)c1 [Compound 2] | 228 nM and 161 nM and 98.6 nM and 67.6 nM | 

SMILES | EC50 | EC50 [1]
Cc1occc1C(=O)Nc1ccc(Cl)c(COc2ccccc2N)c1 [Compound 52] | 13700 nM and 16200 nM | 
Cc1ccccc1OCc1cc(NC(=O)c2ccoc2C)ccc1Cl [Compound 9] | 13500 nM and 35000 nM | 
Cc1occc1C(=O)Nc1ccc(Cl)c(COc2ccccc2F)c1 [Compound 14] | 771 nM and 395 nM and 255 nM | 
COc1ccccc1OCc1cc(NC(=O)c2ccoc2C)ccc1Cl [Compound 12] | 488 nM and 379 nM and 899 nM | 
Cc1occc1C(=O)Nc1ccc(Cl)c(COc2c(F)cccc2F)c1 [Compound 20] | 799 nM | 496 nM
Cc1occc1C(=S)Nc1ccc(Br)c(COc2ccccc2C(F)(F)F)c1 [Compound 65] | 0.281 nM | 0.29 nM
Cc1occc1C(=S)Nc1ccc(Cl)c(CSc2ccccc2F)c1 [Compound 71] | 342 nM and 128 nM and 396 nM | 
Cc1occc1C(=O)Nc1ccc(Cl)c(COc2ccccc2C(F)(F)F)c1 [Compound 41] | 761 nM and 1110 nM | 
Cc1occc1C(=S)Nc1ccc(Cl)c(CS(=O)(=O)c2ccccc2Cl)c1 [Compound 77] | 251 nM and 299 nM and 1110 nM | 
Cc1occc1C(=O)Nc1ccc(Cl)c(COc2ccc(F)cc2)c1 [Compound 10] | 4260 nM | 4150 nM
Cc1occc1C(=O)Nc1ccc(Cl)c(COc2c(F)c(F)cc(F)c2F)c1 [Compound 58] | 281 nM | 475 nM
Cc1occc1C(=O)Nc1ccc(Br)c(COc2ccccc2C(F)(F)F)c1 [Compound 62] | 195 nM and 817 nM and 552 nM and 793 nM and 554 nM | 
Cc1occc1C(=S)Nc1ccc(Cl)c(OCc2ccccc2F)c1 [Compound 70] | 9.67 nM | 12.2 nM
Cc1occc1C(=S)Nc1ccc(Cl)c(COc2c(F)c(F)cc(F)c2F)c1 [Compound 60] | 10.6 nM and 4.62 nM | 
Cc1occc1C(=O)Nc1ccc(Cl)c(CSc2ccccc2F)c1 [Compound 72] | 14900 nM and 12100 nM | 
CCCOc1ccccc1OCc1cc(NC(=S)c2ccoc2C)ccc1Cl [Compound 55] | 10000 nM and 9000 nM and 3730 nM and 4260 nM | 
Cc1occc1C(=S)Nc1ccc(Cl)c(COc2c(F)c(F)c(F)c(F)c2F)c1 [Compound 59] | 117 nM | 199 nM
Cc1occc1C(=O)Nc1ccc(Cl)c(COc2ccccc2C#N)c1 [Compound 29] | 3480 nM and 3400 nM and 3100 nM and 3760 nM | 3390 nM
Cc1occc1C(=O)Nc1ccc(Cl)c(COc2ccccc2)c1 [Compound 1] | 2380 nM and 1550 nM and 4810 nM | 
Cc1occc1C(=O)Nc1ccc(Cl)c(COc2c(F)ccc(F)c2F)c1 [Compound 39] | 102 nM and 50.7 nM and 113 nM | 
Cc1occc1C(=S)Nc1ccc(Cl)c(CSc2ncccn2)c1 [Compound 78] | 302 nM and 696 nM and 375 nM | 
COC(=O)c1sccc1OCc1cc(NC(=S)c2ccoc2C)ccc1Cl [Compound 74] | 270 nM and 131 nM and 147 nM | 
COC(=O)c1sccc1OCc1cc(NC(=O)c2ccoc2C)ccc1Cl [Compound 73] | 131000 nM and 21200 nM | 
Cc1occc1C(=O)Nc1ccc(Cl)c(COc2ccccc2Br)c1 [Compound 35] | 2290 nM and 3140 nM and 1230 nM | 
Cc1occc1C(=S)Nc1ccc(Cl)c(COc2ccccc2-c2ccccc2)c1 [Compound 48] | 3110 nM and 2750 nM and 5410 nM | 
CCOc1ccccc1OCc1cc(NC(=S)c2ccoc2C)ccc1Cl [Compound 36] | 377 nM and 124 nM and 788 nM | 
